Laboratory results from ChEMBL document CHEMBL1201862, “PubChem BioAssay data set” (2004).
Calls of active or inactive are those of the source.

Experiments:
[1] = Counterscreen for inhibitors of Trypanosoma brucei methionyl tRNA synthetase (MetRS): Luminescence-based cell-based high throughput dose response assay to identify compounds that are cytotoxic to Jurkat human T lymphocyte cells.; assay type: functional
[2] = target: T1, Methionyl-tRNA synthetase, putative (Trypanosoma brucei brucei, UniProt Q38C91); assay type: functional, Trypanosoma brucei brucei strain 927/4 GUTat10.1
T1 sequence (Q38C91 whole entry): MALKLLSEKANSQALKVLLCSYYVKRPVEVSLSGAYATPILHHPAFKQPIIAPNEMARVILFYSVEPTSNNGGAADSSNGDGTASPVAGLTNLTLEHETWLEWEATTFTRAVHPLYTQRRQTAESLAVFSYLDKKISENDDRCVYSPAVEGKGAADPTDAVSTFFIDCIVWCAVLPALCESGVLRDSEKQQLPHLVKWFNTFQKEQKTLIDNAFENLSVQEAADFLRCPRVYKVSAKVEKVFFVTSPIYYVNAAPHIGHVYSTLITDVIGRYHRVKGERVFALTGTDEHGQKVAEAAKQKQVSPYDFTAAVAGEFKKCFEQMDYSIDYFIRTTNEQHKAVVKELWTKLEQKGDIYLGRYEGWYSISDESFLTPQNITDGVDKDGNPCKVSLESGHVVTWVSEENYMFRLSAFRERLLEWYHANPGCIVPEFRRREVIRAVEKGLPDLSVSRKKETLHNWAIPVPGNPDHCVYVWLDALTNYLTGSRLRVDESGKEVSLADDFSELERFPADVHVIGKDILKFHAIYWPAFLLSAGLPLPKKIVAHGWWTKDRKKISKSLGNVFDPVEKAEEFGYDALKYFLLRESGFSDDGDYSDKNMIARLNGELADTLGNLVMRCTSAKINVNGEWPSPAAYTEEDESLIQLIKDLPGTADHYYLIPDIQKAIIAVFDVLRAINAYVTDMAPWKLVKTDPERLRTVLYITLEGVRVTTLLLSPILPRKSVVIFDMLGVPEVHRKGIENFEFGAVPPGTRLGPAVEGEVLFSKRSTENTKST

[3] = target: T1, Methionyl-tRNA synthetase, putative; assay type: functional, Trypanosoma brucei brucei strain 927/4 GUTat10.1; remark: listed apart in the source
[4] = intracellular Trypanosoma cruzi inhibitors in host cells – cell-based, plate reader, cherry-pick samples, set 3, dose response (AID 651818); assay type: functional;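 further: compounds incubated with infected cells for about four days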
[5] = target: T2, Small ubiquitin-related modifier 1 (Homo sapiens, UniProt P63165); test: inhibitors of SUMO1 peptide binding, dose response, biochemical, fluorescence polarization, uHTS hits (AID 624382); assay type: functional; conditions: read-out: IC50_Mean
T2 sequence (P63165 whole entry): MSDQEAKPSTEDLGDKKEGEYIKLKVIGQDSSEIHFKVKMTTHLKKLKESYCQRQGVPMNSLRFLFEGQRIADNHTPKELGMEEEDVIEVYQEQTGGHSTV

[6] = target: T2, Small ubiquitin-related modifier 1; test: inhibitors of SUMO1 partner interactions, dose response, biochemical, FRET (AID 624383); assay type: functional; conditions: read-out: IC50_Mean
[7] = system: P388/ADR; test: cells; assay type: functional; conditions: Mus musculus
[8] = system: SN12K1; test: cells; assay type: functional; conditions: Homo sapiens
[9] = system: P388; test: cells; assay type: functional; conditions: Mus musculus
[10] = target: T3, Caspase-3 (Homo sapiens, UniProt P42574); assay type: functional;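 further: Dose-response selectivity test against caspase-3 for candidate inhibitors of sentrin-specific proteases (SENPs)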
T3 sequence (P42574 whole entry): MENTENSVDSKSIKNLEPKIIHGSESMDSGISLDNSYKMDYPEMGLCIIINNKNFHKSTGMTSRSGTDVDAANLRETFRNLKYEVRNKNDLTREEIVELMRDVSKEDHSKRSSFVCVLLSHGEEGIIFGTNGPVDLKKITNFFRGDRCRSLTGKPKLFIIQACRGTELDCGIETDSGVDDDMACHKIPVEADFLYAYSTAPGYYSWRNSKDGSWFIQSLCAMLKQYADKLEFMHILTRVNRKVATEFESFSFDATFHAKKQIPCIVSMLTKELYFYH

[11] = target: T4, Sentrin-specific protease 7 (Homo sapiens, UniProt Q9BQF6); assay type: functional;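 further: Luminescence-based dose-response confirmation of ultra-high-throughput screening hits, measuring inhibition of SENP7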
T4 sequence (Q9BQF6 whole entry): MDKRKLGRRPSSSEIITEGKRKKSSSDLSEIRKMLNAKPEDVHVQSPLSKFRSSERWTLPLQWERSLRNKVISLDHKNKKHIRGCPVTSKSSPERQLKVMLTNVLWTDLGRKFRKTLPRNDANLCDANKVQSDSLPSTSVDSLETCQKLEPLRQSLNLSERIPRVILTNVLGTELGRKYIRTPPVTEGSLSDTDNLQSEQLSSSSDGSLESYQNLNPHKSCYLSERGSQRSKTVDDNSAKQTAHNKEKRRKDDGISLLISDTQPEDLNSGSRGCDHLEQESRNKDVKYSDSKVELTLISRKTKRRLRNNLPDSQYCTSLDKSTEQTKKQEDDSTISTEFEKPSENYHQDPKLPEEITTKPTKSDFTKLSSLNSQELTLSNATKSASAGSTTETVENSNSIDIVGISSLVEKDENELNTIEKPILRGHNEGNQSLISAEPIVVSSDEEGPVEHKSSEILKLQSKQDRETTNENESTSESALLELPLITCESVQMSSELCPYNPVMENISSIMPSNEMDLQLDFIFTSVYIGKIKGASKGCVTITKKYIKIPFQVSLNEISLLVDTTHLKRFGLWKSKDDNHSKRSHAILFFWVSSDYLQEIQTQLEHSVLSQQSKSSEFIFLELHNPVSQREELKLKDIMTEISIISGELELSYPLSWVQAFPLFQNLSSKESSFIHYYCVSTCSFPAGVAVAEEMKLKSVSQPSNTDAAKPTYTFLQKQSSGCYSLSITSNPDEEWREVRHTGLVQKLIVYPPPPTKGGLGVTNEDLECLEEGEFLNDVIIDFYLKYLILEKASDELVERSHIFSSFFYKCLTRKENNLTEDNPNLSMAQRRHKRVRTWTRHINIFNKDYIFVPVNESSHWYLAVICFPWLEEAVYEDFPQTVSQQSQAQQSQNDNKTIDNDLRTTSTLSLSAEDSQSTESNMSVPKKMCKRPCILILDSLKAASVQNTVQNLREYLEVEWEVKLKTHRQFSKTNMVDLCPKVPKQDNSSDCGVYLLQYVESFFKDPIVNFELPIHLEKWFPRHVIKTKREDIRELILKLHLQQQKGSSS

[12] = target: T5, Sentrin-specific protease 6 (Homo sapiens, UniProt Q9GZR1); assay type: functional;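 further: Luminescence-based dose-response confirmatory assay of SENP6 inhibition, following up an ultra-high-throughput screen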
T5 sequence (Q9GZR1 whole entry): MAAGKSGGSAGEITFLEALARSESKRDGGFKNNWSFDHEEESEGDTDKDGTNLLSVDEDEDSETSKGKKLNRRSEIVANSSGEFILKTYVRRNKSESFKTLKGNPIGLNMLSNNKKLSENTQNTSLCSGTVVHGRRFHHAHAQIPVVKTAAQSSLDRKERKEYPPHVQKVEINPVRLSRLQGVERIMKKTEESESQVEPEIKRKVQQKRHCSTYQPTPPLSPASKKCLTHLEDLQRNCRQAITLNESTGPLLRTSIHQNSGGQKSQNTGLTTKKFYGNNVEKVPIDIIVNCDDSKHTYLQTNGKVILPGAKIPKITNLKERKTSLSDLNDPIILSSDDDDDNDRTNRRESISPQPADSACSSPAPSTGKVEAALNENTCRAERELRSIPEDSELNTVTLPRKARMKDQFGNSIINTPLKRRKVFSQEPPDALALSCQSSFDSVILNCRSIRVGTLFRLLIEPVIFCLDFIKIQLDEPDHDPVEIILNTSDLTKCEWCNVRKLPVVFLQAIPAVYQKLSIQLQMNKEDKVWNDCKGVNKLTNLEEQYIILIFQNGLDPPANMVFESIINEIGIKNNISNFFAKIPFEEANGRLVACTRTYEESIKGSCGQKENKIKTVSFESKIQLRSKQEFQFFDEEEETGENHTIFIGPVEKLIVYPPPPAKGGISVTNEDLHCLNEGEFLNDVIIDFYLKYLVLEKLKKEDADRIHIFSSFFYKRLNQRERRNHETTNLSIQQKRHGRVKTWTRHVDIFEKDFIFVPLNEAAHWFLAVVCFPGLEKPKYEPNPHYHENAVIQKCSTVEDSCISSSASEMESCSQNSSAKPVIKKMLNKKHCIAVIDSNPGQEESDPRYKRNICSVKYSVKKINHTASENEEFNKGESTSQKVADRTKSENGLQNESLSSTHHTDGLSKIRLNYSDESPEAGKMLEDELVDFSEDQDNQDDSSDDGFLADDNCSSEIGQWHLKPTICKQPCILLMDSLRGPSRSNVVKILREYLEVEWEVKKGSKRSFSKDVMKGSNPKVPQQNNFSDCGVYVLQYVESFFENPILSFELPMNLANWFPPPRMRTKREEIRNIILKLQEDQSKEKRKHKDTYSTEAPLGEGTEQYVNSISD

[13] = target: T6, Sentrin-specific protease 8 (Homo sapiens, UniProt Q96LD8); assay type: functional;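 further: luminescence read-out of SENP8 inhibition, dose-response confirmation following an ultra-high-throughput screen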
T6 sequence (Q96LD8 whole entry): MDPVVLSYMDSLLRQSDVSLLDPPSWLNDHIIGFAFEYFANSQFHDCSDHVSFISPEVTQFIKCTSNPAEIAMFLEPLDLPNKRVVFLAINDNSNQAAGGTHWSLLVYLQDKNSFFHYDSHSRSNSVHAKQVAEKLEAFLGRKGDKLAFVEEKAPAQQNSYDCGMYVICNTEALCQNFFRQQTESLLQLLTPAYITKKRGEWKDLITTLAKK

[14] = target: T7, Cysteine protease ATG4B (Homo sapiens, UniProt Q9Y4P1); assay type: functional;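 further: Fluorescence-based dose-response confirmation assay measuring inhibition of ATG4B activity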
T7 sequence (Q9Y4P1 whole entry): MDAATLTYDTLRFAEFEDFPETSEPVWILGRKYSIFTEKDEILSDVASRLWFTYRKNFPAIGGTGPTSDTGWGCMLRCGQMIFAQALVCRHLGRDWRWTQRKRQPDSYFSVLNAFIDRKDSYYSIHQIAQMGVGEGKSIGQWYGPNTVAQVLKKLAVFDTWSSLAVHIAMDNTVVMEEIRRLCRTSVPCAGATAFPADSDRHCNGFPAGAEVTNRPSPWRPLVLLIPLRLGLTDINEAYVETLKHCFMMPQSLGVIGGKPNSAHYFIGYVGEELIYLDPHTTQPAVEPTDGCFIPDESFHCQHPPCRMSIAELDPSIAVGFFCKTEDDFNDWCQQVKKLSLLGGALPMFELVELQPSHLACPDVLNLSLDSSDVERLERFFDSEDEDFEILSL

[15] = target: Phospholipase A2 (Homo sapiens, UniProt P04054); assay type: functional;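 further: confirmatory dose-response counterscreen on phospholipase A2, testing hits that came from an ultra-high-throughput screen for ATG4B inhibitors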
Phospholipase A2, sequence (P04054 whole entry): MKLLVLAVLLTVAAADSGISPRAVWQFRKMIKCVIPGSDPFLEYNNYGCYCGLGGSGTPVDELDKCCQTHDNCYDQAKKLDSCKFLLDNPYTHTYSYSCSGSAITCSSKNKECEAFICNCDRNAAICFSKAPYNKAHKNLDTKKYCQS

[16] = HEp-2 cell cytotoxicity, dose response, cytotoxicity control for RSV inhibitor project, HTS (AID 2410); assay type: functional; conditions: human respiratory syncytial virus

With `Clc1ccc2[nH]c(C3CCN(Cc4nnnn4C4CCCCC4)CC3)nc2c1` the IC50 [1] was 14.5 µM (inactive).
With `Clc1ccc2nc(C3CCN(Cc4nnnn4C4CCCCC4)CC3)[nH]c2c1` the IC50 [2] was 7.33 µM (active) and the IC50 [3] was 2.91 µM (active).
For `C[C@H](O)[C@@H]1C(=O)N2CCc3c([nH]c4ccccc34)[C@@H]2C[C@@H]1N(C)Cc1ccc(Cl)cc1`, the IC50 [2] was 1.49 µM (active), the IC50 [1] was 57.9 µM (inactive) and the IC50 [3] was 0.974 µM (active).
With `C[C@H]1CN([C@@H](C)CO)C(=O)c2cccc(NC(=O)c3ccncc3)c2O[C@@H]1CN(C)CC1CCCCC1` the AC50 [4] was 0.365 µM (active).
In the case of `COc1ccc(C(=O)Nc2ccc(C(=O)Nc3nccs3)cc2)cc1[N+](=O)[O-]`, the IC50 [5] is reported as > 66.6 µM (inactive) and the IC50 [6] is reported as 9.87 µM (active).
For `CCOC(=O)/C(O)=C1\C(=O)N(C)C(=O)C1c1cccc(OC)c1` (stereo unspecified), the GI50 [7] was > 100 µM (inactive), the GI50 [8] was > 100 µM (inactive) and the GI50 [9] was > 100 µM (inactive).
With `Cc1ccc(-c2nnc(SCc3ccccc3F)o2)cc1` the IC50 [10] was 17.7 µM (active), the IC50 [11] was 5.03 µM (active) and the IC50 [12] was 14.6 µM (active). The IC50 [13] was 21.4 µM (active), the IC50 [14] was 14.5 µM (active) and the IC50 [15] was 7.21 µM (active).
For `COc1cc2c(cc1OC)C(Cl)C(c1ccc(Br)cc1)=C2Cl` (stereo unspecified), the GI50 [7] was 3.78 µM (inactive), the GI50 [8] was 15.6 µM (inactive) and the GI50 [9] was 3.94 µM (inactive).
With `C[C@H](CO)N1C[C@H](C)[C@@H](CN(C)CC2CC2)Oc2c(NC(=O)Nc3ccc4c(c3)OCO4)cccc2C1=O` the AC50 [4] was 20 µM (inactive).
With `CCN(CC)CCNC(=O)C1COc2ccc(-c3cc(=O)c4ccccc4o3)cc2O1` (stereo unspecified) the GI50 [7] was 12.3 µM (inactive), the GI50 [8] was 16.8 µM (inactive) and the GI50 [9] was 0.29 µM (active).
For `Cc1ccc(S(=O)(=O)N(C)C[C@H]2Oc3c(NC(=O)c4ccc(-c5nccs5)cc4)cccc3C(=O)N([C@H](C)CO)C[C@@H]2C)cc1`, the AC50 [4] was 8.72 µM (active).
In the case of `O=S(=O)(O)c1cc(/N=[N+](\[O-])c2ccc(/N=N/c3ccccc3)cc2S(=O)(=O)O)ccc1/C=C/c1ccc(/N=[N+](\[O-])c2ccc(/N=N/c3ccccc3)cc2S(=O)(=O)O)cc1S(=O)(=O)O`, the GI50 [8] is reported as > 31.6 µM (inactive) and the GI50 [9] is reported as > 100 µM (inactive).
For `CCCCCCC(=O)Nc1nc(C)c(-c2csc(Nc3cccc(OC)c3)n2)s1`, the CC50 [16] was 18.4 µM (active), the IC50 [5] was > 66.6 µM (inactive) and the IC50 [6] was 12.9 µM (active).
